Here are results for 6 molecules from paper PMC5608352, “Formyl peptide derived lipopeptides disclose differences between the receptors in mouse and men and call the pepducin concept in question” (PLoS ONE, 2017).

Residues, ends and D or L forms follow the SMILES beside them. *: point of attachment. Palmitoyl = CCCCCCCCCCCCCCCC(=O)*

Broadly, the EC50 is the concentration needed to bring the measured effect to its halfway point. Higher therefore signals a need for much substance.

In one test the target is T1, mouse neutrophils (Mus musculus, UniProt O88536).
T1 sequence (O88536 1-351): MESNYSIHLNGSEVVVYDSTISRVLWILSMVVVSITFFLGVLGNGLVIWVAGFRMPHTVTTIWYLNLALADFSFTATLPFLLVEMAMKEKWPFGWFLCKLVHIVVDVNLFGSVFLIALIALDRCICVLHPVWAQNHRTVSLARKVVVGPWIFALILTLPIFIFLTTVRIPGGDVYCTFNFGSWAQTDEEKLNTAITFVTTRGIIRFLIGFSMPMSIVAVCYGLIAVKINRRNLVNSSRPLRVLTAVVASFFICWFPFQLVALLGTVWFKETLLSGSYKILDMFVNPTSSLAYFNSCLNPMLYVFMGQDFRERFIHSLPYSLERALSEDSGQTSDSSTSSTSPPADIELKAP
Nature of the test: Direct activation: superoxide release (isoluminol/HRP chemiluminescence), WT mouse bone marrow neutrophils. It is filed as cell-based. The note with it: approximate value given in running text. The source says: (§1) Mice (8–12 weeks of age) were killed by cervical dislocation, the femurs and tibias were removed and freed of soft tissue attachments, and the extreme distal tip of each extremity was cut off. KRG without Ca^2+ and Mg^2+ (KRG-) was forced through the bone by using a 1-mL syringe with a 27-gauge needle. After dispersing cell clumps and removing the debris, the bone marrow granulocytes were isolated according to an earlier described procedure with some modifications. Briefly, a cell suspension in 2 mL of KRG- was laid on top of a three-layer Percoll gradient (1.095, 1.085, and 1.070 g/mL). The density of each Percoll solution was verified using density marker beads. After centrifugation at 500 × g for 30 min at 4°C in a swinging bucket rotor, the lowest band (1.085/1.095 g/mL interface) was collected as the neutrophil fraction. After washing with KRG-, remaining red blood cells were eliminated by hypotonic lysis. After a final wash with KRG-, the cells were resuspended in KRG. The cell number and population of bone marrow cells were determined by flow cytometry based on forward scatter (size) and side scatter (density) localization.
NADPH-oxidase activity was determined using an isoluminol and HRP-enhanced chemiluminescence (CL) system that allow for the determination of superoxide production. The CL activity was measured in a six-channel Biolumat LB 9505 apparatus (Berthold Co., Wildbad, Germany), using disposable 4-mL polypropylene tubes with 1 mL reaction mixture. The tubes contained 4 U HRP and 10 μg/mL isoluminol together with the cells that were equilibrated in the Biolumat for 5 min at 37°C, after which the stimulus solution (100 μL) was added. The light emission was recorded continuously over time and presented as superoxide production (in arbitrary light units, cpm x10^-6) as a function of time (min). The activity before stimulus addition was recorded as basal line and this activity was not changed in vehicle control samples. Since the FPR/Fpr-mediated superoxide production with respect to the onset and decline are very similar, the peak activities were used to compare the responses induced.
Naïve bone marrow cells produce very low levels of superoxide upon stimulation and to increase this production the cells were routinely primed for one hour at RT followed by TNF-α (10 ng/mL, final concentration) priming for a period of 20 min at 37°C [10]. The cells were then kept on ice until further analysis, as described above. The reason for choosing the chemiluminescence based NADPH-oxidase assay system was that very few cells are required, allowing us to monitor and quantify receptor-mediated events with the limited number of mouse bone marrow neutrophils available.
Data analysis was performed using Graph Pad Prism 7.0. The EC50/IC50 values were determined from experiments in which the activities were normalized to the response induced by maximal response or induced by agonist in the absence of inhibitor. The statistical analysis was performed on raw data using Student’s t-test when two groups were compared or one-way ANOVA with Dunnett’s multiple comparisons test in comparison to the control response when three groups were compared. * p ≤ 0.05 was considered significant.

The target of test [1] is T2, Fpr2 (Mus musculus, UniProt O88536).
T2 construct: WT mouse neutrophils (5 x 10^4 cells) were pre-incubated without (solid line) or with mF2Pal16; endogenous in cells; host or cells: bone marrow neutrophils of C57BL/6 wild-type mice, TNF-alpha primed
T2 sequence (O88536 1-351): T1 sequence (O88536 1-351)
On the set-up: method as in PMID 27614010. The conditions noted are these: ref [12]; cited from earlier work. The source says:
When looking at the FPRs in different species it is clear that the receptor family has a complex evolutionary history, as illustrated by the fact that the number of genes in the family vary markedly in mouse and man. […] As different mouse models constitute important tools for translational studies aiming to understa ... || Genetically modified mouse strains and mouse disease models provide excellent tools to study the function of neutrophil FPRs in vivo. Such studies have indicated Fprs (in particular Fpr2) as important regulators of the physiological processes leading to resolution of inflammation. However, a direct translation of mouse data to human studies is hampered due to the distant phylogenetic relationship between mouse and human receptors. In addition to the different number of Fpr genes in mice and humans and an incomplete understanding of the evolutionary relationship between human FPRs ...

In another test the test system is Fpr2^-/- neutrophils. Briefly: Direct activation: superoxide release, Fpr2^-/- mouse neutrophils compared with WT. Format: cell-based. The conditions noted are these: fMIFL 10 nM, reference response. The source says: C57BL/6 wild-type mice were purchased from Charles River Laboratories and Fpr2^−/− mice generated as described previously, were generously provided by Dr Ji Ming Wang, Frederick National Laboratory for Cancer Research, USA. Mice were kept under standard temperature and light conditions and fed laboratory chow and water ad libitum, at the Department of Rheumatology and Inflammation Research, University of Gothenburg. Sex matched WT and Fpr2^-/- animals (age 8–10 weeks) were used to isolated bone marrow derived neutrophils. The studies performed were approved by the Ethical Committee for Animal Experimentation, Göteborg, Sweden.
Mice (8–12 weeks of age) were killed by cervical dislocation, the femurs and tibias were removed and freed of soft tissue attachments, and the extreme distal tip of each extremity was cut off. […] The cell number and population of bone marrow cells were determined by flow cytometry based on forward scatter (size) and side scatter (density) localization.
NADPH-oxidase activity was determined using an isoluminol and HRP-enhanced chemiluminescence (CL) system that allow for the determination of superoxide production. The CL activity was measured in a six-channel Biolumat LB 9505 apparatus (Berthold Co., Wildbad, Germany), using disposable 4-mL polypropylene tubes with 1 mL reaction mixture. […]

The target in test [2] is T2, Fpr2. Nature of the test: Inhibition of F2Pal16-induced superoxide release, WT mouse neutrophils. It is filed as cell-based. The note with it: Boc2 2 μM or peptidomimetic inhibitor 1 μM (five experiments), or mF2Pal16 500 nM against F2Pal16 500 nM (three experiments); 5 min pre-incubation.
Excerpt: as §1
NADPH-oxidase activity was determined using an isoluminol and HRP-enhanced chemiluminescence (CL) system that allow for the determination of superoxide production. The CL activity was measured in a six-channel Biolumat LB 9505 apparatus (Berthold Co., Wildbad, Germany), using disposable 4-mL polypropylene tubes with 1 mL reaction mixture. […] The light emission was recorded continuously over time and presented as superoxide production (in arbitrary light units, cpm x10^-6) as a function of time (min). The activity before stimulus addition was recorded as basal line and this activity was not changed in vehicle control samples. […]
Data analysis was performed using Graph Pad Prism 7.0. The EC50/IC50 values were determined from experiments in which the activities were normalized to the response induced by maximal response or induced by agonist in the absence of inhibitor. […]

As for `CCCCCCCCCCCCCCCC(=O)N[C@@H](CCCCN)C(=O)N[C@H](C(=O)N[C@@H](Cc1c[nH]cn1)C(=O)N[C@@H](CCCCN)C(=O)N[C@@H](CCCCN)C(=O)NCC(=O)N[C@@H](CCSC)C(=O)N[C@H](C(=O)N[C@@H](CCCCN)C(=O)N[C@@H](CO)C(=O)N[C@@H](CO)C(=O)N[C@@H](CCCNC(=N)N)C(=O)N1CCC[C@H]1C(=O)N[C@@H](CC(C)C)C(=O)N[C@@H](CCCNC(=N)N)C(=O)N[C@H](C(=O)O)C(C)C)[C@@H](C)CC)[C@@H](C)CC` [F2Pal16] (Palmitoyl-KIHKKGMIKSSRPLRV-OH), the EC50 at mouse neutrophils is approximately 300 nM. On to fMLF, for which, on Fpr2 [1], the “activity at mouse Fprs (earlier work)” value is “low affinity for their mouse orthologous”. Take fMIFL [reference compound]: in the test with Fpr2^-/- neutrophils, the “fMIFL superoxide response in Fpr2^-/- versus WT neutrophils” value is “comparable in WT and Fpr2 deficient neutrophils”. For the same molecule, the “activity at mouse Fprs (earlier work)” value at Fpr2 [1] is “potently and selectively activate Fpr1”. In the case of `CCCCCCCCCCCCCCCC(=O)N[C@@H](CCCCN)C(=O)N[C@H](C(=O)N[C@@H](Cc1c[nH]cn1)C(=O)N[C@@H](CCCCN)C(=O)N[C@@H](CCC(N)=O)C(=O)NCC(=O)N[C@@H](CC(C)C)C(=O)N[C@H](C(=O)N[C@@H](CCCCN)C(=O)N[C@@H](CO)C(=O)N[C@@H](CO)C(=O)N[C@@H](CCCNC(=N)N)C(=O)N1CCC[C@H]1C(=O)N[C@@H](CC(C)C)C(=O)N[C@@H](CCCNC(=N)N)C(=O)N[C@H](C(=O)O)C(C)C)[C@@H](C)CC)[C@@H](C)CC` [F1Pal16] (Palmitoyl-KIHKQGLIKSSRPLRV-OH), at mouse neutrophils, the EC50 was approximately 300 nM. For the molecule Lau-(Lys-βNSpe)6-NH2, the “effect of inhibitor on F2Pal16 response, WT mouse neutrophils” value on Fpr2 [2] is “significantly reduced”.

Take WKYMVM [FPR2 specific agonist]: on Fpr2 [1], the “activity at mouse Fprs (earlier work)” value was “low affinity for their mouse orthologous”.
